Experimental data from article PMC11912224, “A general approach for activity-based protein profiling of oxidoreductases with redox-differentiated diarylhalonium warheads” (Chemical Science, 2025).

Legend:
Assay in all cases: covalent labelling, streptavidin enrichment, LC-MS/MS
Conditions in all cases: 30 uM probe, 1 h, mouse liver pieces
[1] = target: T1, aldehyde oxidase 1 (AOX1) (Mus musculus, UniProt O54754)
T1 construct: native, in intact mouse liver pieces
T1 sequence (O54754 1-1333): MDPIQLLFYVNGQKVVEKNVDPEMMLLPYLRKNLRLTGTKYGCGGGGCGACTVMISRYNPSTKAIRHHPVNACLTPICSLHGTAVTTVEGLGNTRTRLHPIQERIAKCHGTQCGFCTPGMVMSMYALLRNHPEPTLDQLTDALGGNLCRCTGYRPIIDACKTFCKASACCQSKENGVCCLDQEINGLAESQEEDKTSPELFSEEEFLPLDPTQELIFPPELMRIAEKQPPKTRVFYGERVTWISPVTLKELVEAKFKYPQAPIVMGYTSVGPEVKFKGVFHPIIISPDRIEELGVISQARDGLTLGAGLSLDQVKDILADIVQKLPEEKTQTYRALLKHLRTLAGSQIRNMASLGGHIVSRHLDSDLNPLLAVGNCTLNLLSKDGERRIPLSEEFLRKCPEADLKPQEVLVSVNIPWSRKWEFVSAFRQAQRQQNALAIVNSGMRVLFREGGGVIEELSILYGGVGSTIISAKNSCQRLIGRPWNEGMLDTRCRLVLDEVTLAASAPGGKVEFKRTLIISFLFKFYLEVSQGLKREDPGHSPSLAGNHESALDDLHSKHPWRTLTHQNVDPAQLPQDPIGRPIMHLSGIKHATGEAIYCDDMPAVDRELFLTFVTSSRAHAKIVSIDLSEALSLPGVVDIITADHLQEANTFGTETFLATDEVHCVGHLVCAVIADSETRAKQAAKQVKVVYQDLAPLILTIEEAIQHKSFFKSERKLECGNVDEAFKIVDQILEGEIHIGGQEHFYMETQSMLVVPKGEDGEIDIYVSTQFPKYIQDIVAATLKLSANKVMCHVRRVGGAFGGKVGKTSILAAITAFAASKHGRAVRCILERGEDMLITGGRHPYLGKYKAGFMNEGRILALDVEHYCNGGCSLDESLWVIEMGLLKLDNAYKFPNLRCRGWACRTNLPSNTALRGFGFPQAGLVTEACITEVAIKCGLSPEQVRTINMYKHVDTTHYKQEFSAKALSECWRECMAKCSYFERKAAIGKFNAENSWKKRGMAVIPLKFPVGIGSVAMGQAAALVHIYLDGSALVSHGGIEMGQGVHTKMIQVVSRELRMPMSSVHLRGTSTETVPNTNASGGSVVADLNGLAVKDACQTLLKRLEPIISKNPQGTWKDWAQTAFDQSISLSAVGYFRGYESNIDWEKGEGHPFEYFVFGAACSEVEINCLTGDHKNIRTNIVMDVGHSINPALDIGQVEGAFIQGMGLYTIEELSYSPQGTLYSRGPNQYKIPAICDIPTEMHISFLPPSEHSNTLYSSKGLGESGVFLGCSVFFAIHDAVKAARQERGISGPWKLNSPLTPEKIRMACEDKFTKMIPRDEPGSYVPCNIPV

[2] = target: T2, monoamine oxidase A (MAOA) (Mus musculus, UniProt Q64133)
T2 construct: native, in intact mouse liver pieces
T2 sequence (Q64133 1-526): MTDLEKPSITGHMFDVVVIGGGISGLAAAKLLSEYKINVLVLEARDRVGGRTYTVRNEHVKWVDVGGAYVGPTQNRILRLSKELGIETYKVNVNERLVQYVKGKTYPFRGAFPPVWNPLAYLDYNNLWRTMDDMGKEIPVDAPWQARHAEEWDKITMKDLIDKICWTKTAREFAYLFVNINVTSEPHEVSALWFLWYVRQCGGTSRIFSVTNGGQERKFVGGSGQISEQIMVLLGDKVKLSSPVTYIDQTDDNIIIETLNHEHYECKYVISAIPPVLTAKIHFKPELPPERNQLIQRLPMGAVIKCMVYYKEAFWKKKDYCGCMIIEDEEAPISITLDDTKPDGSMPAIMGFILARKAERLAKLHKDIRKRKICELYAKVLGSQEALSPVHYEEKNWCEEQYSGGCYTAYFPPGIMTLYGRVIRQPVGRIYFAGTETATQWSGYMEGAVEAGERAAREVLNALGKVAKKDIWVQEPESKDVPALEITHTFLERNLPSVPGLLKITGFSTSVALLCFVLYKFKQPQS

CYP2D10 = target: T3, CYP2D10 (Mus musculus, UniProt P24456)
T3 construct: native, in intact mouse liver pieces
T3 sequence (P24456 1-504): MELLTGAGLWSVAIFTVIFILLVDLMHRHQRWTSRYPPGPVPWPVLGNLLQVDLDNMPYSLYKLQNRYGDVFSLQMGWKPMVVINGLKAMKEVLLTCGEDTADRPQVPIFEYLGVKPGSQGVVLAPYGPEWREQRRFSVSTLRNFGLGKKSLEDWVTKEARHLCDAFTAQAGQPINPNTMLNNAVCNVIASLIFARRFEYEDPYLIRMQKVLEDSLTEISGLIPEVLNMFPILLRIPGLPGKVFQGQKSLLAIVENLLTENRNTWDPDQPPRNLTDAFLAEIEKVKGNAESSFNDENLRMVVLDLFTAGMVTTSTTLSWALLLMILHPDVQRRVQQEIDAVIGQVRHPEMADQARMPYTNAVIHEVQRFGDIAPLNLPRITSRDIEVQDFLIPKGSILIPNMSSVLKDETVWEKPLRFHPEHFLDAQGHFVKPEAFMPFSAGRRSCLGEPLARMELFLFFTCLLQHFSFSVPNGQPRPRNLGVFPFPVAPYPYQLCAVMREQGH

[3] = target: T4, glycerol-3-phosphate dehydrogenase mitochondrial (GPD2) (Mus musculus, UniProt Q64521)
T4 construct: native, in intact mouse liver pieces
T4 sequence (Q64521 43-727): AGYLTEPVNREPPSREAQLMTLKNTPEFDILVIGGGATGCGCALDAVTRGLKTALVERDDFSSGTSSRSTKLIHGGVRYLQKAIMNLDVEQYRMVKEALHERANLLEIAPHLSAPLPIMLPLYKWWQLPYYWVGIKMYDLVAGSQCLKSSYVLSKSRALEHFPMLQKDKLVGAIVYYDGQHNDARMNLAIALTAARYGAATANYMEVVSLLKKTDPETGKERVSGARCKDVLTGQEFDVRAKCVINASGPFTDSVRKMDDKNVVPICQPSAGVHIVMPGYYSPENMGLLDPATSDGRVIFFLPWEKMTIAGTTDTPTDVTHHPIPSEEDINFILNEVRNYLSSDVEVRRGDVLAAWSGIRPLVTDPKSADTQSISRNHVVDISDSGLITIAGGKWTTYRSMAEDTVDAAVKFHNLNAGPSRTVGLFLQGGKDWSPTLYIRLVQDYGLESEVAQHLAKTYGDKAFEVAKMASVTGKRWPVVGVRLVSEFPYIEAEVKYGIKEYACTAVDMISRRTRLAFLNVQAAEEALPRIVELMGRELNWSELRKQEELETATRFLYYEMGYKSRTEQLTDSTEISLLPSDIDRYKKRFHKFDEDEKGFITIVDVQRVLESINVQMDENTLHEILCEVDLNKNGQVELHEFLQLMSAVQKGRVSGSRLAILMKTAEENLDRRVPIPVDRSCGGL

[4] = target: T5, choline dehydrogenase (CHDH, mCHDH) (Mus musculus, UniProt Q8BJ64)
T5 construct: native, in intact mouse liver pieces
T5 sequence (Q8BJ64 35-596): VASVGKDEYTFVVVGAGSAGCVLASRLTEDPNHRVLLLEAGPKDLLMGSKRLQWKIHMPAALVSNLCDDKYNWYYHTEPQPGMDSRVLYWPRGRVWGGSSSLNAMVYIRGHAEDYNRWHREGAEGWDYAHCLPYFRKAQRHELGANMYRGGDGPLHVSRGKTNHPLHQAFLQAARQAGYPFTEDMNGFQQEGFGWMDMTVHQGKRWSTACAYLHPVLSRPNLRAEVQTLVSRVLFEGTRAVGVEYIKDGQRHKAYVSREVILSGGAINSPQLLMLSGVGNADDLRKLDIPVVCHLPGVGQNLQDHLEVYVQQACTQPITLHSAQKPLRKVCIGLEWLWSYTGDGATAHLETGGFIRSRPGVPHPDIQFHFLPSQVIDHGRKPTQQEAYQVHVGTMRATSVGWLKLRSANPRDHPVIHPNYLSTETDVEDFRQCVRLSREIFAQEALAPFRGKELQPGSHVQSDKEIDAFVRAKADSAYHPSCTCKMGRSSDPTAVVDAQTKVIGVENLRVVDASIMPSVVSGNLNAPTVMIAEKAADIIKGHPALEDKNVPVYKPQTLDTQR

[N-]=[N+]=NCCCCCCCCCCNC(=O)c1ccc2c(c1)[I+]c1ccccc1-2 [3da, diphenyleneiodonium-based probe 3da]
covalent labelling, streptavidin enrichment, LC-MS/MS [1]: five are oxidoreductases (CYP27A1, CYP2D10, CYP3A25, HMOX2, and AOX1)

[N-]=[N+]=NCCOCCOCCOCCNC(=O)c1ccc2c(c1)-c1ccccc1[Br+]2 [3fb, diphenylenebromonium probe 3fb]
covalent labelling, streptavidin enrichment, LC-MS/MS [2]: MAOA exclusively by diarylbromonium probe 3fb

[N-]=[N+]=NCCCCCCCCCCNC(=O)c1ccc2c(c1)[Br+]c1ccccc1-2 [3ga, diphenylenebromonium-based probe 3ga]
covalent labelling, streptavidin enrichment, LC-MS/MS (CYP2D10): two significantly enriched CYP450s (CYP27A1, CYP2D10) | covalent labelling, streptavidin enrichment, LC-MS/MS [3]: GPD2 was exclusively enriched by diarylbromonium probe 3ga

[N-]=[N+]=NCCCCCCCCCCNC(=O)c1ccc2c(c1)-c1ccccc1[Cl+]2 [3ha, diphenylenechloronium-based probe 3ha]
covalent labelling, streptavidin enrichment, LC-MS/MS [4]: choline dehydrogenase (CHDH), which is similar to the bacterial choline oxidase
